The values that follow come from patent US9227971B2, “Pyrazolo[1,5-a]pyrimidine compounds as mTOR inhibitors” (Merck Sharp & Dohme Corp., priority 2010, dated 2016).

Each structure is given as a SMILES string. Where two headings read alike, the source gives them in different places.

In experiment [1] the test system is phosphorylated AKT Ser473 (pAKT S473), mTORC2 activity, PC3 cells. As to the kind of experiment: mTOR target engagement assay, immunofluorescent cell-based, pAKT S473 readout (mTORC2 activity). In short, it runs like this: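 After blocking, cells were stained overnight at 4 °C with anti-pAKT S473 antibody, then a fluorescent secondary; inhibition was read as reduced fluorescence intensity.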

Experiment [2] relates to phosphorylated 4E-BP1 Thr37/46 (p4E-BP1 Thr37/46), mTORC1 activity, PC3 cells. As to the kind of experiment: mTOR target engagement assay, immunofluorescent cell-based, p4E-BP1 Thr37/46 readout (mTORC1 activity). As to conditions: read-out: p4E-BP1 Thr37/46 IC50. In short, it runs like this:
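Seed PC3 cells overnight; treat with compound dilutions for ninety minutes at 37° C; fix with glyoxal and block; stain with anti-p4E-BP1 Thr37/46 overnight at 4° C, then fluorescent secondary; read fluorescence and fit IC50 against DMSO-only controls.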

[3] abbreviates: Homo sapiens, PC-3, Table 3-1, PC3 cells.
[4] abbreviates: Homo sapiens, PC-3, PC3 cells, compound treatment ninety minutes at 37° C.

With `CS(=O)(=O)c1c([C@H]2CC3CC[C@H](C2)N3C(=O)c2cn[nH]n2)nc2c(-c3cnn(-c4ccc(F)cc4)c3)cnn2c1N` [Compound 3.178, ((1R,3s,5S)-3-(7-amino-3-(1-(4-fluorophenyl)-1H-pyrazol-4-yl)-6-(methylsulfonyl)pyrazolo[1,5-a]pyrimidin-5-yl)-8-azabicyclo[3.2.1]octan-8-yl)(2H-1,2,3-triazol-4-yl)methanone], the IC50 in experiment [1] (setting [3]) and in experiment [2] (setting [3]) was 1000 to 10000 nM in each case.

On to `CC(=O)c1c([C@@H]2C[C@H]3CC[C@@H](C2)N3C(=O)c2nnc[nH]2)nc2c(-c3cnn(C)c3)cnn2c1N` [Compound 1.1.151, 1-(5-((1R,3s,5S)-8-(4H-1,2,4-triazole-3-carbonyl)-8-azabicyclo[3.2.1]octan-3-yl)-7-amino-3-(1-methyl-1H-pyrazol-4-yl)pyrazolo[1,5-a]pyrimidin-6-yl)ethanone], for which the IC50 in experiment [1] (setting [4]) and in experiment [2] (setting [4]) was 100 to 1000 nM each time.

On to `CC(=O)c1c([C@@H]2C[C@H]3CC[C@@H](C2)N3C(=O)c2nnc[nH]2)nc2c(-c3ccc(C(F)(F)F)nc3)cnn2c1N` [Compound 1.1.104, 1-(5-((1R,3s,5S)-8-(4H-1,2,4-triazole-3-carbonyl)-8-azabicyclo[3.2.1]octan-3-yl)-7-amino-3-(6-(trifluoromethyl)pyridin-3-yl)pyrazolo[1,5-a]pyrimidin-6-yl)ethanone], for which the IC50 in experiment [1] (setting [4]) and in experiment [2] (setting [4]) was 100 to 1000 nM throughout.

With `CC(=O)c1c(C2CC3COCC(C2)N3C(=O)c2nc[nH]n2)nc2c(-c3ccc(-c4ccccc4)nc3)cnn2c1N` (centres unmarked) [Compound 8.27, 1-(5-(9-(1H-1,2,4-triazole-3-carbonyl)-3-oxa-9-azabicyclo[3.3.1]nonan-7-yl)-7-amino-3-(6-phenylpyridin-3-yl)pyrazolo[1,5-a]pyrimidin-6-yl)ethanone], the IC50 lay in the range of 1 to 100 nM in experiment [1] (Homo sapiens, PC-3, PC3 cells) and 100 to 1000 nM in experiment [2] (Homo sapiens, PC-3, PC3 cells).

Regarding `CC(=O)c1c([C@@H]2C[C@H]3CC[C@@H](C2)N3C(=O)c2nnc[nH]2)nc2c(-c3ccc(NC4CC4)nc3)cnn2c1N` [Compound 8.47, 1-(5-((1R,3s,5S)-8-(4H-1,2,4-triazole-3-carbonyl)-8-azabicyclo[3.2.1]octan-3-yl)-7-amino-3-(6-(cyclopropylamino)pyridin-3-yl)pyrazolo[1,5-a]pyrimidin-6-yl)ethanone], the IC50 in experiment [1] (PC3 cells) and in experiment [2] (PC3 cells) was 1 to 100 nM each time.

Turning to `CS(=O)(=O)c1c([C@@H]2C[C@H]3CC[C@@H](C2)N3C(N)=O)nc2c(-c3ccc(-c4ccc(F)cc4)nc3)cnn2c1N` [Compound 3.126, (1R,3s,5S)-3-(7-amino-3-(6-(4-fluorophenyl)pyridin-3-yl)-6-(methylsulfonyl)pyrazolo[1,5-a]pyrimidin-5-yl)-8-azabicyclo[3.2.1]octane-8-carboxamide], the IC50 in experiment [1] (setting [3]) and in experiment [2] (setting [3]) was 1 to 100 nM in each case.

For `CCC(=O)c1ccc(-c2cnn3c(N)c(C(C)=O)c([C@@H]4C[C@H]5CC[C@@H](C4)N5C(=O)c4nnc[nH]4)nc23)cn1` [Compound 1.1.83, 1-(5-(5-((1R,3s,5S)-8-(4H-1,2,4-triazole-3-carbonyl)-8-azabicyclo[3.2.1]octan-3-yl)-6-acetyl-7-aminopyrazolo[1,5-a]pyrimidin-3-yl)pyridin-2-yl)propan-1-one], the IC50 in experiment [1] (setting [4]) and in experiment [2] (setting [4]) was 100 to 1000 nM each time.

For `CS(=O)(=O)c1c([C@@H]2C[C@H]3CC[C@@H](C2)N3C(=O)c2cc(CN)n[nH]2)nc2c(-c3ccc(-c4ccccc4)nc3)cnn2c1N` [Compound 3.85, ((1R,3s,5S)-3-(7-amino-6-(methylsulfonyl)-3-(6-phenylpyridin-3-yl)pyrazolo[1,5-a]pyrimidin-5-yl)-8-azabicyclo[3.2.1]octan-8-yl)(3-(aminomethyl)-1H-pyrazol-5-yl)methanone], the IC50 in experiment [1] (setting [3]) and in experiment [2] (setting [3]) was 1 to 100 nM throughout.

For `COc1ccc(-c2ccc(-c3cnn4c(N)c(S(C)(=O)=O)c([C@@H]5C[C@H]6CC[C@@H](C5)N6C(=O)c5nnc[nH]5)nc34)cn2)c(F)c1` [Compound 3.32, ((1R,3s,5S)-3-(7-amino-3-(6-(2-fluoro-4-methoxyphenyl)pyridin-3-yl)-6-(methylsulfonyl)pyrazolo[1,5-a]pyrimidin-5-yl)-8-azabicyclo[3.2.1]octan-8-yl)(4H-1,2,4-triazol-3-yl)methanone], the IC50 in experiment [1] (setting [3]) and in experiment [2] (setting [3]) was 1 to 100 nM in each case.

Take `Cn1cc2cc(-c3ccc(-c4cnn5c(N)c(S(C)(=O)=O)c([C@@H]6C[C@H]7CC[C@@H](C6)N7C(=O)c6nnc[nH]6)nc45)cn3)ccc2n1` [Compound 3.57, ((1R,3s,5S)-3-(7-amino-3-(6-(2-methyl-2H-indazol-5-yl)pyridin-3-yl)-6-(methylsulfonyl)pyrazolo[1,5-a]pyrimidin-5-yl)-8-azabicyclo[3.2.1]octan-8-yl)(4H-1,2,4-triazol-3-yl)methanone]: the IC50 in experiment [1] (Table 3-1, PC3 cells) is 1 to 100 nM; in experiment [2] (Table 3-1, PC3 cells), 1 to 100 nM.

With `Nc1cc([C@@H]2C[C@H]3CC[C@@H](C2)N3C(=O)CO)nc2c(-c3ccc(-c4ccccc4)nc3)cnn12` [Compound 2.8, 1-((1R,3s,5S)-3-(7-amino-3-(6-phenylpyridin-3-yl)pyrazolo[1,5-a]pyrimidin-5-yl)-8-azabicyclo[3.2.1]octan-8-yl)-2-hydroxyethanone], the IC50 in experiment [1] (setting [4]) lay in the range of 100 to 1000 nM; in experiment [2] (setting [4]) it was 1000 to 10000 nM.

With `CS(=O)(=O)c1c([C@@H]2C[C@H]3CC[C@@H](C2)N3c2ncncc2N)nc2c(-c3ccc(-c4ccccc4)nc3)cnn2c1N` [Compound 8.64, 5-((1R,3s,5S)-8-(5-aminopyrimidin-4-yl)-8-azabicyclo[3.2.1]octan-3-yl)-6-(methylsulfonyl)-3-(6-phenylpyridin-3-yl)pyrazolo[1,5-a]pyrimidin-7-amine], the IC50 fell in the range of 100 to 1000 nM in experiment [1] (Homo sapiens, PC-3, PC3 cells) and 1000 to 10000 nM in experiment [2] (Homo sapiens, PC-3, PC3 cells).

As for `CCc1ccc(-c2cnn3c(N)c(C(C)=O)c([C@@H]4C[C@H]5CC[C@@H](C4)N5C(=O)c4nnc[nH]4)nc23)cn1` [Compound 1.1.99, 1-(5-((1R,3s,5S)-8-(4H-1,2,4-triazole-3-carbonyl)-8-azabicyclo[3.2.1]octan-3-yl)-7-amino-3-(6-ethylpyridin-3-yl)pyrazolo[1,5-a]pyrimidin-6-yl)ethanone], the IC50 in experiment [1] (setting [4]) and in experiment [2] (setting [4]) was 1 to 100 nM throughout.

For `CC(=O)c1c([C@]2(O)C[C@H]3CC[C@@H](C2)N3C(=O)c2nnc[nH]2)nc2c(-c3ccc(-c4ccccc4)nc3)cnn2c1N` [Compound 8.21, 1-(7-amino-5-((1R,3r,5S)-3-hydroxy-8-(4H-1,2,4-triazole-3-carbonyl)-8-azabicyclo[3.2.1]octan-3-yl)-3-(6-phenylpyridin-3-yl)pyrazolo[1,5-a]pyrimidin-6-yl)ethanone], the IC50 in experiment [1] (Homo sapiens, PC-3, PC3 cells) lay within 1000 to 10000 nM; in experiment [2] (Homo sapiens, PC-3, PC3 cells), 1000 to 10000 nM.

Take `CC(=O)c1c([C@H]2C[C@H]3CC[C@@H](C2)N3C(=O)CO)nc2c(-c3ccc(-c4ccccc4)nc3)cnn2c1N` [Compound 1.1.9, 1-((1R,3r,5S)-3-(6-acetyl-7-amino-3-(6-phenylpyridin-3-yl)pyrazolo[1,5-a]pyrimidin-5-yl)-8-azabicyclo[3.2.1]octan-8-yl)-2-hydroxyethanone]: the IC50 in experiment [1] (setting [4]) and in experiment [2] (setting [4]) was 100 to 1000 nM throughout.

Regarding `Cn1nnc(-c2ccc(-c3cnn4c(N)c(S(C)(=O)=O)c([C@@H]5C[C@H]6CC[C@@H](C5)N6C(=O)CO)nc34)cn2)n1` [Compound 3.43, 1-((1R,3a,5S)-3-(7-amino-3-(6-(2-methyl-2H-tetrazol-5-yl)pyridin-3-yl)-6-(methylsulfonyl)pyrazolo[1,5-a]pyrimidin-5-yl)-8-azabicyclo[3.2.1]octan-8-yl)-2-hydroxyethanone], the IC50 in experiment [1] (setting [3]) is 1000 to 10000 nM; in experiment [2] (setting [3]) it was above 10000 nM.

For `NC(=O)N1[C@@H]2CC[C@H]1C[C@H](c1nc3c(-c4ccc(-c5ccccc5)nc4)cnn3c(N)c1C1CC1)C2` [Compound 4.6, (1R,3s,5S)-3-(7-amino-6-cyclopropyl-3-(6-phenylpyridin-3-yl)pyrazolo[1,5a]pyrimidin-5-yl)-8-azabicyclo[3.2.1]octane-8-carboxamide], the IC50 in experiment [1] (setting [4]) and in experiment [2] (setting [4]) was 1 to 100 nM in each case.

As for `CS(=O)(=O)c1c([C@@H]2C[C@H]3CC[C@@H](C2)N3C(=O)[C@@H]2COC(=O)N2)nc2c(-c3ccc(-c4ccccc4)nc3)cnn2c1N` [Compound 3.141, (S)-4-((1R,3R,5S)-3-(7-amino-6-(methylsulfonyl)-3-(6-phenylpyridin-3-yl)pyrazolo[1,5-a]pyrimidin-5-yl)-8-azabicyclo[3.2.1]octane-8-carbonyl)oxazolidin-2-one], the IC50 in experiment [1] (setting [3]) and in experiment [2] (setting [3]) was 1000 to 10000 nM each time.

Regarding `Cn1cc(-c2ccc(-c3cnn4c(N)c(S(C)(=O)=O)c([C@@H]5C[C@H]6CC[C@@H](C5)N6C(=O)c5nnc[nH]5)nc34)cn2)cn1` [Compound 3.106, ((1R,3s,5S)-3-(7-amino-3-(6-(1-methyl-1H-pyrazol-4-yl)pyridin-3-yl)-6-(methylsulfonyl)pyrazolo[1,5-a]pyrimidin-5-yl)-8-azabicyclo[3.2.1]octan-8-yl)(4H-1,2,4-triazol-3-yl)methanone], the IC50 in experiment [1] (setting [3]) and in experiment [2] (setting [3]) was 1 to 100 nM in each case.
